# Experimental data published in US10350213B2 (AI Therapeutics, Inc., priority 2015, dated 2019).
# Like-named read-outs stand apart in the source and are kept apart here.
# Columns and labels:
# TOV-21G (Human ovarian) = test: CellTiterGlo cell viability assay; type: cell-based; details: TOV21G
# [1] = system: 22RV1 (Human prostate cancer); test: CellTiterGlo cell viability assay; type: cell-based
# [2] = system: A549 (Human lung carcinoma); test: CellTiterGlo cell viability assay; type: cell-based
# [3] = system: non-Hodgkin's Lymphoma (NHL) cell lines; test: 3-day CellTiterGlo assay, NHL cell lines; type: cell-based, human; details: sensitive if IC50 less than 500 nM; 3-day assay
# Excerpt: (§1) 35 cell lines were identified as sensitive to apilimod-induced cytotoxicity in this assay. The apilimod-sensitive cells included cells derived from several different cancers including non-Hodgkin's lymphoma, Hodgkin's lymphoma, colorectal cancer, and lung cancer. The most sensitive of those tested were non-Hodgkin's Lymphoma (NHL) cell lines. […] The only NHL subtype not sensitive in this assay was follicular.
# [4] = system: PANC1 (Human pancreatic cancer); test: CellTiterGlo cell viability assay; type: cell-based; details: PANC-1
# [5] = system: SW1088 (Human neuroblastoma); test: CellTiterGlo cell viability assay; type: cell-based
# [6] = system: MiaPaCa-2 (Human pancreatic cancer); test: CellTiterGlo cell viability assay; type: cell-based; details: MIA PaCa-2
# IL-12/IL-23 synthesis = details: oral administration; patients with psoriasis; Wada et al. 2012; cited from earlier work
# [7] = system: AsPC1 (Human pancreatic cancer); test: CellTiterGlo cell viability assay; type: cell-based
# [8] = system: SUDHL-4 (Human Diffuse Large B Cell Lymphoma -GCB); test: CellTiterGlo cell viability assay; type: cell-based
# [9] = system: peripheral blood mononuclear cells; test: Vacuole formation in peripheral blood mononuclear cells; type: cell-based; details: treatment for 24 h
# [10] = system: DU145 (Human prostate cancer); test: CellTiterGlo cell viability assay; type: cell-based; details: DU-145
# [11] = system: SUDHL-6 human DLBCL cancer xenograft; test: Subcutaneous SUDHL-6 human DLBCL cancer xenograft model; type: in vivo, NOD-SCID mice
# Protocol: The tumor cells were sub-cultured twice weekly and harvested during exponential growth for tumor inoculation. NOD-SCID mice were γ-irradiated 24 hrs before inoculation. Each mouse was inoculated subcutaneously in the right flank with SU-DHL-6 tumor cells (5×10^6) in 0.1 ml of PBS with Matrigel (1:1). The tumors were then grown to a mean size of approximately 80-120 mm^3 and the mice were then split into 5 groups and treated as detailed in the Table 5.
# Tumor size was measured twice a week in two dimensions using a caliper, and the volume is expressed in mm^3 using the formula: V=0.5 a×b^2 where a and b are the long and short diameters of the tumor, respectively.
# Each mouse was inoculated subcutaneously in the right flank with SU-DHL-6 tumor cells (5×10^6) in 0.1 ml of PBS with Matrigel (1:1). The tumors were then grown to a mean size of approximately 80-120 mm^3 and the mice were then split into 6 groups and treated as detailed in the Table 6.
# [12] = active Crohn's disease; Sands et al. 2010; cited from earlier work
# [13] = Phase 1 dose-escalation (QD/BID) study in normal healthy volunteers; type: in vivo, human; details: for Cmax: oral, human plasma, mean
# [14] = system: RL (Human Follicular B Cell Lymphoma); test: CellTiterGlo cell viability assay; type: cell-based
# Protocol: (§2) Briefly, test compounds (5 μl stock solution, 6×desired final well concentration) were dispensed to 384-well assay plates, TSC2−/− MEF cells (1000 cells per well in 25 μL of media) were added to the plates and the plates were incubated for 72 h (3 days) at 37° C. under an atmosphere of 5% CO2 in a humidified incubator for 3 days. Cell viability was determined with CellTiter-Glo® luminescence assay (Promega) per the manufacturer's instructions. Viability was expressed as a percentage of untreated control cells.
# as §1
# [15] = system: Toledo (Human Diffuse Large B Cell Lymphoma -GCB); test: CellTiterGlo cell viability assay; type: cell-based; details: Human DLBCL-GCB
# Protocol: as §2, §1
# [16] = system: Rec-1 (Human Mantle Cell Lymphoma); test: CellTiterGlo cell viability assay; type: cell-based; details: Rec1
# Protocol: as §2, §1
# [17] = system: HD-MyZ (Human Hodgkin's lymphoma); test: CellTiterGlo cell viability assay; type: cell-based
# Protocol: as §2, §1
# [18] = system: ST486 (Human Burkitt's lymphoma); test: CellTiterGlo cell viability assay; type: cell-based
# Protocol: as §2, §1
# [19] = system: KG-1 (Human acute myelogenous leukemia); test: CellTiterGlo cell viability assay; type: cell-based
# Protocol: as §2, §1
# [20] = system: synovial IL-12 and IL-23 expression; details: patients with rheumatoid arthritis; Krauz et al. 2012; cited from earlier work
# [21] = system: RPMI-8226 (Human plasmacytoma); test: CellTiterGlo cell viability assay; type: cell-based
compound,measurement,setting,value
Cc1cccc(/C=N/Nc2cc(N3CCOCC3)nc(OCCc3ccccn3)n2)c1 [apilimod],IC50,TOV-21G (Human ovarian),7000 nM
same,IC50,[1],> 5000 nM
same,IC50,[2],110 nM
same,share of NHL cell lines sensitive to apilimod,[3],over 50%
same,IC50,[4],> 2000 nM
same,IC50,[5],> 10000 nM
same,IC50,[6],> 2000 nM
same,immunomodulatory activity,IL-12/IL-23 synthesis,showed immunomodulatory activity
same,IC50,[7],> 2000 nM
same,IC50,"[8]; Homo sapiens, 72 h, SU-DHL-4, three-day assay, read-out: IC50 (nM) SU-DHL-4",23 nM
same,IC50,"[8]; Homo sapiens, SU-DHL-4, 72 h, SUDHL-4, 3-day CellTiterGlo assay, read-out: IC50",50 nM
same,IC50,"[8]; SU-DHL-4, SUDHL-4, Human DLBCL-GCB, read-out: IC50",25 nM
same,vacuole formation,[9],induces vacuole formation
same,IC50,[10],> 2000 nM
same,tumor growth inhibition,"[11]; 75 mg/kg apilimod free base p.o. QD×5, 2 days off, QD×5, 31 days",57%
same,effect on body weight,"[11]; all apilimod treatment arms, i.v. and p.o., 29 days",negligible effect on body weight
same,reduction of tumor size,"[11]; apilimod dimesylate 67.5 mg/kg (47 mg/kg free base) i.v. QD×5, 2 days off, QD×5, 29 days",58%
same,reduction of tumor growth,"[11]; apilimod free base p.o. 150 mg/kg single dose (QD×5, 2 days off), 29 days",64%
same,reduction of tumor growth,"[11]; apilimod free base p.o. 150 mg/kg split dose (75 mg/kg BID×5, 2 days off, BID×5), 29 days",68%
same,efficacy over placebo,[12],did not demonstrate efficacy over placebo
same,tolerability,[12],well tolerated
same,share of the 24 hr period with plasma concentrations above 50 ng/ml,"[13]; 50 ng/ml equal to 125 nM, 105 mg BID",~50%
same,safety profile,"[13]; 105 mg BID, humans",tolerable safety profile
same,Cmax,"[13]; Treatment E: 70 mg ×2, total 140 mg, read-out: PM Cmax",110 ng/mL
same,Cmax,"[13]; human, plasma, po, 7 mg, Treatment A: 7 mg once, total 7 mg, read-out: AM Cmax",10.8 ng/mL
same,Cmax,"[13]; human, plasma, po, 7 mg, Treatment B: 7 mg ×2, total 14 mg, read-out: AM Cmax",12.7 ng/mL
same,Cmax,"[13]; human, plasma, po, 7 mg, Treatment B: 7 mg ×2, total 14 mg, read-out: PM Cmax",8.18 ng/mL
same,Cmax,"[13]; human, plasma, po, 14 mg, Treatment C: 14 mg ×2, total 28 mg, read-out: AM Cmax",18.2 ng/mL
same,Cmax,"[13]; human, plasma, po, 14 mg, Treatment C: 14 mg ×2, total 28 mg, read-out: PM Cmax",10.7 ng/mL
same,Cmax,"[13]; human, plasma, po, 35 mg, Treatment D: 35 mg ×2, total 70 mg, read-out: AM Cmax",71.8 ng/mL
same,Cmax,"[13]; human, plasma, po, 35 mg, Treatment D: 35 mg ×2, total 70 mg, read-out: PM Cmax",63 ng/mL
same,Cmax,"[13]; human, plasma, po, 70 mg, Treatment E: 70 mg ×2, total 140 mg, read-out: AM Cmax",145 ng/mL
same,Cmax,"[13]; human, plasma, po, 105 mg, Treatment F: 105 mg ×2, total 210 mg, read-out: AM Cmax",192 ng/mL
same,Cmax,"[13]; human, plasma, po, 105 mg, Treatment F: 105 mg ×2, total 210 mg, read-out: PM Cmax",149 ng/mL
same,IC50,[14],> 10000 nM
same,IC50,[15],270 nM
same,IC50,[16],300 nM
same,IC50,[17],> 1000 nM
same,IC50,"[18]; Homo sapiens, 72 h, 3-day CellTiterGlo assay",< 100 nM
same,IC50,[18]; Human Burkitt's lymphoma,25 nM
same,IC50,[19],> 2500 nM
same,effect on synovial IL-12 and IL-23 expression,[20],failed to alter synovial IL-12 and IL-23 expression
same,IC50,[21],> 10000 nM
